Target: T1, CHMP4B (Homo sapiens, UniProt Q9H444)
T1 construct: endogenous in cells; host or cells: HL-60 (ATCC CCL-240)
T1 sequence (Q9H444 1-224): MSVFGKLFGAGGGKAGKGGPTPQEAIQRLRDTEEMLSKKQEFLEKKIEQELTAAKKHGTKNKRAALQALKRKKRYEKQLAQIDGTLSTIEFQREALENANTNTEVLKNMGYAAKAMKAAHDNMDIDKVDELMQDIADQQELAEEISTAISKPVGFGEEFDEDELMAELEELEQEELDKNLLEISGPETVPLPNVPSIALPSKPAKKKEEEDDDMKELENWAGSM
Assay: TPP-CCR in living HL-60 cells
Assay type: cell-based

Cc1cnc(Nc2ccc(F)cc2Cl)nc1-c1c[nH]c(C(=O)N[C@H](CO)c2cccc(Cl)c2)c1 [ERK 11e]
Hill slope (TPP-CCR, living cells, CHMP4B): 0.21 | Hill slope (CHMP4B) (living HL-60 cells, […] °C, TMT-MS): 0.21 | EC50 (living HL-60 cells, […] °C, TMT-MS, read-out: pEC50 (CHMP4B) (converted)): 41.7 nM
